Data reported in PubChem BioAssay AID624360 (Broad Institute, 2012).
Records with an inconclusive call do not appear. The source made the active and inactive calls.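 How the source made its calls: active means fitted curve falls past -35% activity change at a concentration under twice the top valid dose, in every test run; inconclusive means test runs disagree, some active and some inactive; inactive means all test runs inactive, including signal rising instead of falling.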

Assay: inhibitors of IL-1beta-stimulated NF-kB luciferase reporter, dose response, selectivity assay for EBV LMP1 NF-kB inhibitor project, LMP1 TES2-inducible cells, dry powder (AID 624360)
Details: HEK293, 16 h
`CC12CCC3C(CC=C4CC(O)CCC43CO)C1CCC2OC(=O)c1ccccc1` (centres undefined) gave an AC35 of 3.88 µM.

Same assay, conditions: HEK293 IL-1beta-induced NF-kB luciferase reporter (LMP1 TES2-inducible cell line), 16 h
With `C[C@@H]1CN([C@@H](C)CO)C(=O)c2cc(NC(=O)Nc3ccc4c(c3)OCO4)ccc2O[C@H]1CN(C)CC1CCCCC1` the AC35 was 2.7 µM.
`S=C(N/N=C(\c1ccccc1)c1ccccn1)N(Cc1ccccn1)Cc1ccccn1` showed an AC35 of 0.769 µM.
Compound `CC1CN(C(=O)CSc2nnc3c4ccccc4n(Cc4cccc(Cl)c4)c3n2)CCN1C(=O)c1ccccc1F` (centres undefined) has an AC35 of 9.28 µM.
In the case of `C/C(=N\NC(=S)N1CCC1)c1ccccn1`, the AC35 is reported as 0.287 µM.
In the case of `COc1ccccc1[C@]1(C)ON(c2ccccc2C(F)(F)F)C1=O`, the AC35 is reported as 8.17 µM.
With `Cc1cc(NC(=O)c2ccc3c(c2)OCCO3)no1` the AC35 was 111 µM.
In the case of `C/C(=N\NC(=S)N1CCCCCC1)c1ccccn1`, the AC35 is reported as 0.213 µM.
In the case of `COc1ccc2nc(Nc3nc(C)c(CCC(C)C)c(=O)[nH]3)nc(C)c2c1`, the AC35 is reported as 2.72 µM.
Compound `C/C=C/C/C=C/CCC(=O)[C@H]1O[C@H]1C(N)=O` has an AC35 of 7.67 µM.
With `C[C@@H]1CCCCO[C@H](CN(C)C(=O)NC2CCCCC2)[C@H](C)CN([C@@H](C)CO)C(=O)c2cc(NC(=O)C3CCCCC3)ccc2O1` the AC35 was 11.7 µM.
With `CCN1CCN(C(c2cccnc2)c2cc(Cl)c3cccnc3c2O)CC1` (centres undefined) the AC35 was 5.66 µM.
For `O=C1/C(=C/c2ccncc2)SC(=S)N1Cc1ccccc1`, the AC35 was 91.5 µM.
`COc1ccc2[nH]c(C(=O)N/N=C/c3ccc(O)cc3O)cc2c1` gave an AC35 of 6.48 µM.
`C/C(=N\NC(=S)N1CC2CCC(CC2)C1)c1cnccn1` gave an AC35 of 0.0862 µM.
In the case of `Nc1ccn([C@@H]2O[C@H](CO)[C@@H](O)C2O)c(=O)n1` (some centres undefined), the AC35 is reported as 15.8 µM.
`C/C(=N\NC(=S)N1CCCCC1)c1ccccn1` showed an AC35 of 0.168 µM.
Work on `S=C(NCc1ccccn1)N/N=C/c1ccccn1` yielded an AC35 of 1.98 µM.
In the case of `C[C@H](CO)N1C[C@H](C)[C@H](CN(C)C(=O)Nc2ccc(C(F)(F)F)cc2)OCCCC[C@H](C)Oc2ccc(NC(=O)Nc3ccc(F)cc3)cc2C1=O`, the AC35 is reported as 7.85 µM.
In the case of `C[C@@H]1CN([C@@H](C)CO)C(=O)c2cccc(NC(=O)Nc3cccc4ccccc34)c2O[C@H]1CN(C)C(=O)Nc1ccc(C(F)(F)F)cc1`, the AC35 is reported as 11.4 µM.
Compound `C[C@H](CO)N1C[C@H](C)[C@@H](CN(C)CC2CC2)OCCCC[C@H](C)Oc2ccc(NC(=O)Nc3cccc4ccccc34)cc2C1=O` has an AC35 of 1.13 µM.
For `CCCSc1nnc2c3ccccc3n(Cc3ccccc3)c2n1`, the AC35 was 2.61 µM.
`C/C(=N\NC(=S)N1CCCCC1)c1cccc(C)n1` showed an AC35 of 0.343 µM.
Compound `C/C(=N\NC(=S)N1CCCC1)c1ccccn1` has an AC35 of 0.156 µM.
Work on `Fc1ccc2c(c1)c1nnc(SCCN3CCOCC3)nc1n2Cc1ccccc1` yielded an AC35 of 4.49 µM.
In the case of `Cc1ccc(S(=O)(=O)Nc2ccc3c(c2)C(=O)N([C@@H](C)CO)C[C@H](C)[C@@H](CN(C)C(=O)CCC(F)(F)F)OCCCC[C@H](C)O3)cc1`, the AC35 is reported as 0.488 µM.
Compound `C/C(=N\NC(=S)N1CC2CCC(CC2)C1)c1ccccn1` has an AC35 of 0.913 µM.
For `CCC(Sc1nnc2c3ccccc3n(Cc3ccc(Br)cc3)c2n1)C(=O)NCCCN1CCOCC1` (centres undefined), the AC35 was 2.71 µM.
`C[C@H](CO)N1C[C@H](C)[C@@H](CN(C)Cc2ccc(-c3ccccc3)cc2)Oc2ccc(NC(=O)Nc3cccc4ccccc34)cc2CC1=O` gave an AC35 of 4.64 µM.
For `CC(C)=CCN(C(=O)C#Cc1ccccc1)[C@H](CO)c1ccccc1`, the AC35 was 2.5 µM.
With `O=c1[nH]c(Nc2nc3ccccc3o2)nc2c1CCCC2` the AC35 was 107 µM.
Compound `Cc1ccc(NC(=O)C2CCN(S(=O)(=O)c3ccc4c(c3)NC(=O)C(C)S4)CC2)cc1Cl` (centres undefined) has an AC35 of 3.67 µM.
`C/C(=N\NC(=S)Nc1ccccc1)c1ccccn1` gave an AC35 of 0.522 µM.

Same assay, conditions: HEK293 IL-1beta-induced NF-kB luciferase reporter (LMP1 TES2-inducible cell line), 16 h; at 15 µM (top of the series)
For `C=C1C[C@]23C[C@@]1(O)CC[C@H]2[C@@]12C=C[C@H](O)[C@@](C)(C(=O)O1)[C@H]2[C@@H]3C(=O)O`, the activity change, negative = inhibition was 13.6% (inactive).

Same assay, conditions: HEK293 IL-1beta-induced NF-kB luciferase reporter (LMP1 TES2-inducible cell line), 16 h; at 26 µM (top of the series)
In the case of `Cc1c(NC(=O)c2cccc(NC(=O)COc3ccccc3C#N)c2)c(=O)n(-c2ccccc2)n1C`, the activity change, negative = inhibition is reported as 14.8% (inactive).
In the case of `C[C@@H]1CN([C@@H](C)CO)C(=O)c2cc(NC(=O)Nc3ccc(C(F)(F)F)cc3)ccc2O[C@@H](C)CCCCO[C@H]1CN(C)Cc1ccc(C(F)(F)F)cc1`, the activity change, negative = inhibition is reported as 12.7% (inactive).
In the case of `C[C@@H]1CCCCO[C@H](CN(C)S(=O)(=O)c2ccccc2)[C@@H](C)CN([C@@H](C)CO)C(=O)c2cc(N(C)C)ccc2O1`, the activity change, negative = inhibition is reported as 9.13% (inactive).
With `CCc1ccc(/C=C2\SC(=S)N(CCCC(=O)Nc3ccccn3)C2=O)cc1` the activity change, negative = inhibition was 40.6% (inactive).
In the case of `C[C@@H]1CCCCO[C@H](CN(C)CC2CCCCC2)[C@H](C)CN([C@@H](C)CO)C(=O)c2cc(NC(=O)NC3CCCCC3)ccc2O1`, the activity change, negative = inhibition is reported as -0.708% (inactive).
For `c1ccc(-c2cn3c4c(sc3n2)CCCC4)cc1`, the activity change, negative = inhibition was 8.88% (inactive).
In the case of `COc1ccc(C(=O)Nc2ccc3[nH]ccc3c2)cc1`, the activity change, negative = inhibition is reported as 20.3% (inactive).
In the case of `COc1ccc(-c2cc3nc4n(c(=O)c3s2)CCC4)cc1`, the activity change, negative = inhibition is reported as 19.5% (inactive).
For `C=CCN1Cc2ccccc2[C@@H]2OC(c3ccc(OCCCO)cc3)=N[C@]2(CCC(=O)OC(C)(C)C)C1=O`, the activity change, negative = inhibition was 37.8% (inactive).
In the case of `CCc1sc(C(=O)Nc2ncccc2O)cc1C`, the activity change, negative = inhibition is reported as 6.99% (inactive).
